Details of series [1]: method as in earlier work. The conditions noted are these: ref EPI suite (Experimental database or KOWWIN v1.67) and ChemAxon; cited from earlier work.
Series [2] deals with adult male fathead minnows (Phimephales promelas). The following applies: plasma, 3, 11 and 28 ng·L^-1 in water; cited from earlier work.
In series [3] the test system is adult zebrafish. The conditions noted are these: cited from earlier work.
Series [4] deals with zebrafish (Danio rerio) eleutheroembryos. Description: Bioconcentration experiment (OECD 305 based), 48 h exposure. The format is in vivo. The following applies: pH 7.8; for BCF48h: Cf(48h)/Cw(48h); for BCFk: k1/k2, first-order one-compartment model, 48 h. The protocol:
Zebrafish eleutheroembryos were cultured from wild-type adult zebrafish bred and maintained in AZTI Zebrafish Facility (REGA ES489010006105) under standard conditions. The OECD 305 technical guidance was used as reference to establish the experimental conditions for growing as well as the nominal concentrations for the contaminants (dissolved oxygen ≥ 60 %, 27°C and pH 7.8 ± 0.2). Exposure solutions were prepared with the composition of fresh river water (ISO 73463 [43]): 220.5 mg of CaCl2, 63 mg of NaHCO3, 5.5 mg of KCl, and 60.1 mg of MgSO4 per liter of distilled water in plastic tanks.
[…]. […] […].
Bioconcentration factor (BCF) was estimated as the ratio between the concentration of the compound in the target organism, at the maximum time of exposure and the mean calculated in the exposure medium (BCF48h). […]
Where Cf is the concentration in fish (ng·g^-1), t is the exposure time (h), k1 is the first-order uptake constant (L·kg^-1·h^-1), Cw is the concentration of the chemical in the exposure media (μg·L^-1), and k2 is the first-order elimination rate constant (h^-1). Assuming a negligible concentration in fish samples at t0 and considering its constant in the exposure medium, the equations can be expressed as: 3 Cfuptake=k1/k2.Cw1−e^−k2t 4 Cfdepuration=Cf,0.e^−k2t
Where Cf,0 denotes the compound concentration in the organism, when the depuration phase starts. Experimental kinetics data were done using the software NONLIN 5.1, which is specific for no linear adjustments (Nashville, TN). BCFs were calculated applying the two procedures, getting BCF48h (Cf (48h) / Cw (48h)) and BCFk (k1/k2) for comparison purposes when steady state is reached.

Series [5] has the same test system. Description: SSRI metabolization in eleutheroembryos exposed to the mixture of parent compounds. The protocol:
(§1) […] The concentration of the target analyte was determined in both eleutheroembryos and exposure medium all throughout the experiment.
(§2) Fish roe samples from lumpfish and zebrafish eleutheroembryos: 10 mg of wet weigh (w/w) fortified with a solution containing all tested pharmaceuticals at 240 ng·g^-1 and paroxetine d6 as IS at 100 ng·g^-1 was a mixture with 500 μL of acetonitrile and sonicated with ultrasonic probe at 40% of amplitude for 60 s to assist the extraction of the selected compounds and the mixture was centrifuged. The residue was discarded, and the supernatant was cleaned using 100 mg of C18, vortexed for 30 s, and centrifuged. Acetonitrile was led to evaporation before derivatization and injection to the GC-MS following the same steps as described above.

The conditions of series [6]: ref SCIfinder; cited from earlier work.
Series [7] deals with zebrafish larvae. The conditions noted are these: cited from earlier work; for calculated BCFs: individual compounds and mixtures at 5, 10 and 25 μg·L^-1.
A short description of series [8]: SSRI metabolization in eleutheroembryos exposed to the mixture of parent compounds. The conditions noted are these: zebrafish (Danio rerio), whole eleutheroembryos (larvae), other: waterborne exposure in exposure medium, pH 7.8, metabolite concentration in eleutheroembryos; for concentration at 6 h: t = 6h; for concentration at 24 h: t = 24h; for concentration at 45 h: t = 45h; for concentration at 48 h: t = 48h. The protocol: as §1, §2

The test system of series [9] is human liver microsomes. Further details: method as in PMID 1389950. The following applies: citalopram metabolized by cytochrome P450 isozyme to N-desmethylcitalopram; cited from earlier work.
Series [10] deals with Japanese medaka (Oryzias latipes). The conditions noted are these: cited from earlier work; for average concentration in fish: Japanese medaka exposed to fluoxetine, day 7.
The mark [11] stands for this setting: parent exposure concentration 80 μg·L^-1, t = 6h.
Setting [12] is: parent exposure concentration 80 μg·L^-1, t = 24h.
[13] abbreviates: parent exposure concentration 80 μg·L^-1, t = 45h.
Where [14] appears, read: parent exposure concentration 80 μg·L^-1, t = 48h.
[15] abbreviates: parent exposure concentration 300 μg·L^-1, t = 6h.
The mark [16] stands for this setting: parent exposure concentration 300 μg·L^-1, t = 24h.
Where [17] appears, read: parent exposure concentration 300 μg·L^-1, t = 45h.
Where [18] appears, read: parent exposure concentration 300 μg·L^-1, t = 48h.
The mark [19] stands for this setting: parent exposure concentration 80 μg·L^-1.
[20] abbreviates: parent exposure concentration 300 μg·L^-1.

Here are results for 7 compounds from publication PMC8405463, “Development of a method for assessing the accumulation and metabolization of antidepressant drugs in zebrafish (Danio rerio) eleutheroembryos” (Analytical and Bioanalytical Chemistry, 2021).

Where a name gives a salt, the structure may show the parent alone. Read-outs that look alike come from different tables or passages of the source.

For `CN(C)CCCC1(c2ccc(F)cc2)OCc2cc(C#N)ccc21` (stereo not shown) [Citalopram, citalopram hydrobromide], the Log kow in series [1] is on record as 3.74.

Take `CN[C@H]1CC[C@@H](c2ccc(Cl)c(Cl)c2)c2ccccc21` [Sertraline, sertraline hydrochloride]: the bioaccumulation values entry in series [2] is on record as “approximately 80”. In addition, the Log kow in series [1] is listed as 5.29. Further, the BCF in series [3] (exposed to 0.2 and 0.76 μg·L^-1) was 50 to 70 L/kg.

`N[C@H]1CC[C@@H](c2ccc(Cl)c(Cl)c2)c2ccccc21` [Norsertraline, norsertraline hydrochloride] registered a BCF48h in [4] (nominal 50 μg·L^-1) of 26.5. The same compound showed a BCFk in series [4] (nominal 50 μg·L^-1) of 38. Further, the “metabolite concentration in eleutheroembryos” value in series [5] (setting [11]) was 44.4 ng/g; in [5] (setting [12]) it was 504.0 ng/g; in [5] (setting [13]), 751.8 ng/g; in series [5] (setting [14]) it was 731.3 ng/g; in [5] (setting [15]) it was 141.4 ng/g; in series [5] (setting [16]), 1228.7 ng/g. The entries for the “metabolite concentration in eleutheroembryos” value in [5] (setting [17]) and in series [5] (setting [18]) were 1968.2 ng/g and 2594.7 ng/g, respectively. Moreover, the “ratio metabolite / parent compound in the larvae” value was determined as 0.17 in [5] (setting [11]); 0.12 in series [5] (setting [12]); 0.33 in [5] (setting [13]); 0.16 in series [5] (setting [14]); 0.17 in series [5] (setting [15]); 0.18 in series [5] (setting [16]). The entries for the “ratio metabolite / parent compound in the larvae” value in series [5] (setting [17]) and in [5] (setting [18]) were 0.41 and 0.47, respectively. Also, in series [1], the Log kow is 4.72.

For orientation: pKa means the negative logarithm of the acid dissociation constant. Consider `Fc1ccc([C@@H]2CCNC[C@H]2COc2ccc3c(c2)OCO3)cc1` [Paroxetine, paroxetine hemihydrate], for which the pKa in series [6] was 9.90. Further, the “calculated BCFs” value in [7] is 190–290. Further, in series [1], the Log kow was 3.95.

Consider `CNCCCC1(c2ccc(F)cc2)OCc2cc(C#N)ccc21` (stereo not shown) [Desmethylcitalopram, desmethylcitalopram hydrochloride], for which the BCF48h in series [4] (nominal 80 μg·L^-1) came to 0.69; in [4] (nominal 300 μg·L^-1), 0.21. Besides, the figures for the BCFk in [4] (nominal 80 μg·L^-1) and in series [4] (nominal 300 μg·L^-1) were 0.7 and 0.35, respectively. The “ratio metabolite / parent compound in the larvae” value in series [5] (setting [11]) was found to be 0.07; in series [5] (setting [12]), 0.06; in series [5] (setting [13]), 0.15; in [5] (setting [14]), 0.54; in series [5] (setting [15]), 0.47; in [5] (setting [16]), 0.78. Further, the “ratio metabolite / parent compound in the larvae” value in series [5] (setting [17]) was found to be 0.15; in series [5] (setting [18]), 0.26. Besides, the concentration at 6 h turned out to be 8.9 ng/g in [8] (setting [19]) and 118 ng/g in series [8] (setting [20]). Also, the concentration at 24 h in [8] (setting [19]) turned out to be 10.1 ng/g; in series [8] (setting [20]), 297 ng/g. Further, the concentration at 45 h was 14.3 ng/g in series [8] (setting [19]) and 203 ng/g in series [8] (setting [20]). Also, the concentration at 48 h came to 32.3 ng/g in series [8] (setting [19]) and 123 ng/g in series [8] (setting [20]). The pKa in series [6] is 10.54. Further, the Log kow in series [1] is 3.38. For the same compound, the “ratio for the metabolite” value in series [9] is listed as 5–10 fold.

As for `CNCCC(Oc1ccc(C(F)(F)F)cc1)c1ccccc1` (stereo not shown) [Fluoxetine, Fluoxetine hydrochloride], the bioaccumulation is reported as 195 in series [7] (high concentration exposure 5000 μg·L^-1); “around 30” in series [7] (low and moderate concentrations 10–50 μg·L^-1). Moreover, in series [7], the “calculated BCFs” value is given as 94–170. The Log kow in series [1] is on record as 4.65. Further, in series [10], the “average concentration in fish” value is listed as 40.8 ± 5.0 ng·g^-1 w.w. In addition, in series [10] (Japanese medaka, nominal fluoxetine concentration 640 ng·L^-1), the “kinetic BCF” value is given as 80. Further, the BCF in [10] (Japanese medaka, pH 7) is 9 L/kg; in series [10] (Japanese medaka, pH 8), 30 L/kg; in [10] (Japanese medaka, pH 9), 260 L/kg; in series [3] (exposed to 0.9 and 3.20 μg·L^-1), 20 L/kg.

As to `NCCC(Oc1ccc(C(F)(F)F)cc1)c1ccccc1` (stereo not shown) [Norfluoxetine, norfluoxetine hydrochloride], the pKa in series [6] is reported as 9.05. Moreover, the “average concentration in fish” value in series [10] is recorded as 64.3 ± 8.7 ng·g^-1 w.w.
